From ChEMBL document CHEMBL4007467, “Effects of 6-paradol, an unsaturated ketone from gingers, on cytochrome P450-mediated drug metabolism” (Bioorg Med Chem Lett, 2017) come the findings set out here.

What all share (assay type): ADME
One data set addresses Cytochrome P450 2D6 (Homo sapiens, UniProt P10635). Put plainly: Inhibition of CYP2D6 in human liver microsomes assessed as enzyme-mediated metabolite formation using dextromethorphan as substrate incubated for 5 mins followed by NADPH addition measured after 30 mins by LC-MS/MS analysis. In general terms: Microsomes from liver hold many membrane-bound enzymes, among them those of drug oxidation.

In a further data set the target is T1, CYP2B6 (Homo sapiens, UniProt P20813).
T1 sequence (P20813 whole entry): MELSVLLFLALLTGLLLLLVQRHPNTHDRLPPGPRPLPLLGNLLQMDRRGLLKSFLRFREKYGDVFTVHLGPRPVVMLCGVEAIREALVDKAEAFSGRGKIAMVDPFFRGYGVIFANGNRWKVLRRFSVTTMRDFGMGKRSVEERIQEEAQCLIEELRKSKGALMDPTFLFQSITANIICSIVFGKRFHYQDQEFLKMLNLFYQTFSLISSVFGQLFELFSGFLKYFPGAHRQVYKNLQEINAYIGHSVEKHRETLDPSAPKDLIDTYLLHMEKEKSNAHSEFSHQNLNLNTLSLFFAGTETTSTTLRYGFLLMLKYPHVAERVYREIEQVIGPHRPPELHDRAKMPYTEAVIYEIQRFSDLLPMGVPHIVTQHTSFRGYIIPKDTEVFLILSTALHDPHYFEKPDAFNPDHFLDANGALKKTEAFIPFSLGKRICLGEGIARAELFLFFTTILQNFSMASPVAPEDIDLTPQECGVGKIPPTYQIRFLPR
The data set can be described thus: Inhibition of CYP2B6 in human liver microsomes assessed as enzyme-mediated metabolite formation at 10 uM using bupropion as substrate incubated for 5 mins followed by NADPH addition measured after 30 mins by LC-MS/MS analysis relative to control. Also noted: scale not given: the % may be the effect or the level left. Conditions: probe bupropion, read-out: Activity.

In the next data set the target is CYP2C19 (Homo sapiens, UniProt P33261). The data set can be described thus: Inhibition of CYP2C19 in human liver microsomes assessed as enzyme-mediated metabolite formation at 10 uM using (S)-mephenytoin as substrate incubated for 5 mins followed by NADPH addition measured after 30 mins by LC-MS/MS analysis relative to control. Also noted: scale not given: the % may be the effect or the level left. To be noted: probe (S)-mephenytoin, read-out: Activity.

Another data set concerns the target T2, CYP2A6 (Homo sapiens, UniProt P11509).
T2 sequence (P11509 whole entry): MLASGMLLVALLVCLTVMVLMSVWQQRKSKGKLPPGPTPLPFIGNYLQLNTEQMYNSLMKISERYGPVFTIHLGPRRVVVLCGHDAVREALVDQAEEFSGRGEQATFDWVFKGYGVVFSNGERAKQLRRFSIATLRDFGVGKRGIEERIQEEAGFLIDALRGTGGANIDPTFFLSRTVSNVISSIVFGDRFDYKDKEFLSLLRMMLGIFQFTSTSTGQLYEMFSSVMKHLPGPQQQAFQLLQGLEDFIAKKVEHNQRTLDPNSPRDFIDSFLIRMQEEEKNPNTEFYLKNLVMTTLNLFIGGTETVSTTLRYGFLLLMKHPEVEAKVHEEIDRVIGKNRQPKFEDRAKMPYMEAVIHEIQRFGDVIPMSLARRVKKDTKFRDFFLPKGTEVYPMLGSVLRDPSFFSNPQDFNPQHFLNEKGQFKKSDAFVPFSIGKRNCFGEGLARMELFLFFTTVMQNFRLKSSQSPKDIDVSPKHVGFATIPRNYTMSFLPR
The data set can be described thus: Inhibition of CYP2A6 in human liver microsomes assessed as enzyme-mediated metabolite formation at 1 uM using coumarin as substrate incubated for 5 mins followed by NADPH addition measured after 30 mins by LC-MS/MS analysis relative to control. Also noted: scale not given: the % may be the effect or the level left. To be noted: probe coumarin, read-out: Activity.

Another data set concerns the target T3, CYP1A2 (Homo sapiens, UniProt P05177).
T3 sequence (P05177 whole entry): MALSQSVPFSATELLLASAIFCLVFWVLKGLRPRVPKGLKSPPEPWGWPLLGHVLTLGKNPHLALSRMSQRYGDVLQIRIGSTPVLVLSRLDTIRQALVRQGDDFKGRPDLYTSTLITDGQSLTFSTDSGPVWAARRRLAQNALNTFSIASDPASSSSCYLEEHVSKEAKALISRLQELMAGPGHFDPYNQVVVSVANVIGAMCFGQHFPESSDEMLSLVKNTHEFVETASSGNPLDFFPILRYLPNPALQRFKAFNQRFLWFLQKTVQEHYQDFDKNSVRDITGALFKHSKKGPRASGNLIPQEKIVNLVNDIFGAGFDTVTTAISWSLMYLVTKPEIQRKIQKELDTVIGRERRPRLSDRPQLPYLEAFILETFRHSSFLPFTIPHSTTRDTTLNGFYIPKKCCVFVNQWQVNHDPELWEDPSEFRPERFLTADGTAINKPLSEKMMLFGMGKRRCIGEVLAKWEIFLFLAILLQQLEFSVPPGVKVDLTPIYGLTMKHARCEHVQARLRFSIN
The data set can be described thus: Inhibition of CYP1A2 in human liver microsomes assessed as enzyme-mediated metabolite formation at 3 uM using phenacetin as substrate incubated for 5 mins followed by NADPH addition measured after 30 mins by LC-MS/MS analysis relative to control. To be noted: probe phenacetin, read-out: Activity. Also noted: scale not given: the % may be the effect or the level left.

The target of the next data set is Cytochrome P450 2C9 (Homo sapiens, UniProt P11712). The data set can be described thus: Inhibition of human CYP2C9 using diclofenac as substrate incubated for 5 mins followed by NADPH addition measured after 30 mins by LC-MS/MS analysis.
The next data set addresses CYP3A4 (Homo sapiens, UniProt P08684). The data set can be described thus: Inhibition of CYP3A4 in human liver microsomes assessed as enzyme-mediated metabolite formation at 10 uM using testosterone as substrate preincubated for 20 mins followed by substrate addition measured after 30 mins in presence of NADPH by LC-MS/MS analysis relative to control. Also noted: scale not given: the % may be the effect or the level left. To be noted: probe testosterone, read-out: Activity.

A further data set has as its target T4, CYP2C8 (Homo sapiens, UniProt P10632).
T4 sequence (P10632 whole entry): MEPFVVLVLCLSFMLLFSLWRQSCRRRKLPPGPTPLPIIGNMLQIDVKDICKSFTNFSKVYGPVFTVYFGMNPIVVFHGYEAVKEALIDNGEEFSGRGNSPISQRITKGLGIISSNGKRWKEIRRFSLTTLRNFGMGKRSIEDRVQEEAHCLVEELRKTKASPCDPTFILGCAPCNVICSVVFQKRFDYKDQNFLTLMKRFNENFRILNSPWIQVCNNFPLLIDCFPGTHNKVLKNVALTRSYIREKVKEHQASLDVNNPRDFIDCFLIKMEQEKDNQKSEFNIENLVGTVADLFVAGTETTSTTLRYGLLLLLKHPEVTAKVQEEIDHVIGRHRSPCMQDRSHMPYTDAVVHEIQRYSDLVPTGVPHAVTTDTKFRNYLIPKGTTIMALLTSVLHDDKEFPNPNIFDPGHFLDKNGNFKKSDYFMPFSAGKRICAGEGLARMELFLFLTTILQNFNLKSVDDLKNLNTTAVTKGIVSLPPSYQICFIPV
The data set can be described thus: Inhibition of CYP2C8 in human liver microsomes assessed as enzyme-mediated metabolite formation at 3 uM using paclitaxel as substrate preincubated for 20 mins followed by substrate addition measured after 30 mins in presence of NADPH by LC-MS/MS analysis relative to control. Also noted: scale not given: the % may be the effect or the level left. Conditions: probe paclitaxel, read-out: Activity.

Cytochrome P450 2C9, sequence (P11712 whole entry): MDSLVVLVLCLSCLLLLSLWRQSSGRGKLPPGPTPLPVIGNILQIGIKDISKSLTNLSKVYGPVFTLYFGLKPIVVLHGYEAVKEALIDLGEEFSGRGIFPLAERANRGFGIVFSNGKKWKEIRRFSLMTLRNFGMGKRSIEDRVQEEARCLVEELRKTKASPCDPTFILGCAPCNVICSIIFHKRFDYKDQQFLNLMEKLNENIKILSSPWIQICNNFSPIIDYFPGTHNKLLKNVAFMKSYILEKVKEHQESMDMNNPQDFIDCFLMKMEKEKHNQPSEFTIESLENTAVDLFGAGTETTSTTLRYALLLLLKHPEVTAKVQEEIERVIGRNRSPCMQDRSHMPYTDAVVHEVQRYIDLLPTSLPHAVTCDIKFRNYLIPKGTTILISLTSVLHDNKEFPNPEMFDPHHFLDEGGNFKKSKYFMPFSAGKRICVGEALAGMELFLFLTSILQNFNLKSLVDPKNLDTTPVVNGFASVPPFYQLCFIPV
CYP2C19, sequence (P33261 whole entry): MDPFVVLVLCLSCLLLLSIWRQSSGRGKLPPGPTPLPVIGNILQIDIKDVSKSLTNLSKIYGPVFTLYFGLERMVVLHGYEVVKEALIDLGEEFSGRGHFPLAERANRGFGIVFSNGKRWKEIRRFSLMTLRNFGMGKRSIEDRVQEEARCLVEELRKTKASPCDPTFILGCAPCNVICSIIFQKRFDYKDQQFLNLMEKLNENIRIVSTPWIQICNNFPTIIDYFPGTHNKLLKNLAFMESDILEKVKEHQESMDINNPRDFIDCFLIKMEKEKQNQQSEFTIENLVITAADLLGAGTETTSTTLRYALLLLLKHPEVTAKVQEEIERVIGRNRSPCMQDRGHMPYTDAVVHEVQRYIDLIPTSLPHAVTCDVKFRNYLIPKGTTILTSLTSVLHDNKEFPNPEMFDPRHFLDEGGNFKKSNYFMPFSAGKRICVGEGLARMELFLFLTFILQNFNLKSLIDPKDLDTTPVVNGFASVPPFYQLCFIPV
Cytochrome P450 2D6, sequence (P10635 whole entry): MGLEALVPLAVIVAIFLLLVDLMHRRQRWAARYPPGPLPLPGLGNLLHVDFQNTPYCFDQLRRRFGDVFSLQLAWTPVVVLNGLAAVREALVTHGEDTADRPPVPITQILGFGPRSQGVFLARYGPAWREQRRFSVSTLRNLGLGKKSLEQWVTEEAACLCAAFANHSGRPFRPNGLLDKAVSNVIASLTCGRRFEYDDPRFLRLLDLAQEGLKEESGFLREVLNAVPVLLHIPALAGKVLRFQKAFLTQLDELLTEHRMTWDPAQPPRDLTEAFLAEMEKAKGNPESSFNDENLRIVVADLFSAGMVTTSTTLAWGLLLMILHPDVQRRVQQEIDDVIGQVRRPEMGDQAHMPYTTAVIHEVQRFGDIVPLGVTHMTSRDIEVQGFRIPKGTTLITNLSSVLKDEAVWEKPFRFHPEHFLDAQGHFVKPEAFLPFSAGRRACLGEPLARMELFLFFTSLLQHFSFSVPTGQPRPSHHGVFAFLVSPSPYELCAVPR
CYP3A4, sequence (P08684 whole entry): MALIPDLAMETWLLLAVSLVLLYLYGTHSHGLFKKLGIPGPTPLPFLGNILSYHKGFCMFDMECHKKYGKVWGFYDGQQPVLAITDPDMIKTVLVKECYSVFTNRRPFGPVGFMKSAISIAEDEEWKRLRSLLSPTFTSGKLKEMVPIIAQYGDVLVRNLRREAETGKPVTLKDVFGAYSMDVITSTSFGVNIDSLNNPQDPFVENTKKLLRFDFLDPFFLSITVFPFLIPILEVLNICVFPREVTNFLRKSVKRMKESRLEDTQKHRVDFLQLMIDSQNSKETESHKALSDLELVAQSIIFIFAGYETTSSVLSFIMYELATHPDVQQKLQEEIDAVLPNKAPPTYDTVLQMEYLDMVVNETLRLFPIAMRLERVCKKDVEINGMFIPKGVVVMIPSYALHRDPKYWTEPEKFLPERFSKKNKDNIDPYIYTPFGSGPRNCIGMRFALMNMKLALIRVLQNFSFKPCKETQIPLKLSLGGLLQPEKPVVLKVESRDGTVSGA

By IC50 is commonly meant the midpoint of a concentration-inhibition curve. For `CCCCCCCC(=O)CCc1ccc(O)c(OC)c1`, the IC50 is > 30 µM at Cytochrome P450 2D6 and 10.5 µM against Cytochrome P450 2C9. In addition, the activity at 0.5 h, 10 µM at CYP2B6 was found to be 53.9%; at CYP2C19 it was 51.5%; on CYP3A4, 83.6%. The activity at 0.5 h, 1 µM at CYP2A6 stood at 83.6%. The values for the activity at 0.5 h, 3 µM at CYP1A2 and on CYP2C8 were 72% and 56.6%, respectively. On Cytochrome P450 2C9 (human, 0.5 h), the “inhibition (INH)” value was “Dose-dependent effect”.
